From US10344054B2, “Angiotensin-1-receptor antagonists” (Ferring B.V., priority 2016, dated 2019)
Like-named read-outs stand apart in the source and are kept apart here. Residues, ends and D or L forms follow the SMILES beside them.

Legend:
[1] = target: T1, hAT1R (Homo sapiens, UniProt P30556); assay: FLIPR calcium flux assay, Part II: antagonist activity against Angiotensin II; assay type: cell-based; settings: for Emax: read-out: hAT1R Antagonist Efficacy Antag (%) Ave; on hAT1R Antagonist Efficacy Antag (%) Ave: Angiotensin II 10 nM final concentration
T1 sequence (P30556 1-359): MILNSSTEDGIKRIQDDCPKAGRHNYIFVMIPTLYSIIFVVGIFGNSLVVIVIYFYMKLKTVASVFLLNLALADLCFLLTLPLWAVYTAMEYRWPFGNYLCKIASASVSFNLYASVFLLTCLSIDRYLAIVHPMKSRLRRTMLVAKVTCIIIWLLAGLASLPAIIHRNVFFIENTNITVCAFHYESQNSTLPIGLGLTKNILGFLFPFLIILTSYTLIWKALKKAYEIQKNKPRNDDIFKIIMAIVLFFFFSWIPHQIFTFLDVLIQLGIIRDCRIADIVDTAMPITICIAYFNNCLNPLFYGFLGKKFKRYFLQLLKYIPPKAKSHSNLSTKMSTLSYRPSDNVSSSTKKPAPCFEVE
Experimental: (§1) AT1 receptor (AT1R) agonists increase intracellular flux of calcium ions. AT1R antagonists can reduce the agonist effect. […] Compounds were first tested for agonism (Part I) followed by addition of the AT1R agonist angiotensin II to test for antagonist activity (Part II). This assay used a stable hAT1R expressing cell line (ChanTest hAT1R; ChanTest Corp A628). Intracellular flux of calcium in response to agonist was measured through real-time measurement of fluorescence induced through the interaction of Ca2+ (released from intracellular stores) and calcium-sensitive dye. In Part I, cells were exposed to varying concentrations of test compounds and immediately measured for agonist activity (EC50 and Efficacy).
(§2) ChanTest hAT1R stable cells were maintained in Ham's F12 containing 10% (v/v) heat inactivated fetal bovine serum (FBS-HI), 4 mM Glutamax, 1% NEAA, 50 ng/mL plasmocin, 400 μg/mL G418 at 37° C. under 5% CO2 in a humidified atmosphere.
(§3) For FLIPR assay, ChanTest hAT1R cells were trypsinized with 6 ml of Trypsin EDTA solution and harvested in phenol-red free DMEM containing 10% FBS-HI, 4 mM Glutamax and counted, spun down and resuspended in the same medium. The cell suspension was added to the wells of 384-well black PDL clear bottom plates at 2.5×10^4 cells/well, 20 μl/well.
(§4) Preparation of Loading Buffer:
(§5) • Loading Buffer: 1 vial of Calcium 5 Bulk Assay reagent was dissolved in 100 ml of 1× HBSS-20 mM Hepes buffer. • Probenecid was resuspended at 1 M in 1 M NaOH. Once the probenecid had gone into solution, an equal volume of H2O was added to make a solution of 500 mM followed by a 1:100 dilution in the Loading Buffer for a working concentration of 5 mM. The pH was adjusted to 7.4 using 1 M NaOH. Loading the Cells with Loading Buffer • Cell plates were removed from the incubator and 25 μl of Loading Buffer containing probenecid (5 mM) added to each well. • Plates were incubated for 1 hour at 37° C. under 5% CO2 in a humidified atmosphere. […] The remaining steps of the assay were carried forward by FLIPR Tetra. A baseline reading was taken at 1-second (s) intervals for 10 s followed by the addition of 5 μl of 10× compounds. The compound-induced fluorescence signal was then measured for 3 minutes with readings taken at 1-s intervals. • The cell plate was removed from the FLIPR and set aside for an additional 17 minutes. • The cell plate was then transferred back to the FLIPR Tetra, along with the 384 well Angiotensin II agonist dilution plate. A baseline reading was taken at 1-second (s) intervals for 10 seconds, followed by the addition of 5.5 μl of 10× Angiotensin II agonist. The agonist-induced fluorescence signal was then measured for 3 minutes with readings taken at 1-s intervals. • Overall, each well in the FLIPR assay was composed of the following components in a total volume of 55.5 μl:
(§6) Time-course results from the FLIPR Calcium 5 assay were expressed as relative fluorescence light units (RFU). The maximum minus minimum values (Max−Min) were used to quantify the strength of the signal. Mean RFU were calculated from replicate values and plotted on the y-axis versus compound concentration on a logarithmic scale on the x-axis, and a single-binding site, four parameter concentration response model: (MIN+((MAX−MIN)/(1+((EC50/x)^Hill)))), was used to perform non-linear regression analysis, generating concentration response curves. Reported parameters included agonist potency EC50 (the concentration causing half-maximal agonist response), antagonist potency IC50 (the concentration causing half-maximal inhibition of the agonist response for antagonist compounds) and efficacy (% MPE: percent of the maximal possible effect).

[2] = target: T1, hAT1R; assay: FLIPR calcium flux assay, Part I: agonist activity; assay type: cell-based; settings: read-out: hAT1R Agonist Efficacy Agonist (%) Ave
Experimental: as §1, §2, §3, §4, §5, §6

[3] = read-out: hAT1R Antagonist IC50 Ave
[4] = ChanTest hAT1R stable cells, % MPE, percent of the maximal possible effect

Emax [1] [%] | IC50 [1, 3] [nM] | Emax [2, 4] [%] | SMILES | IC50 [1] [nM] | Emax [2] [%]
100 | 8 | 5 | CNCC(=O)N[C@@H](CCCNC(=N)N)C(=O)N[C@H](C(=O)N[C@@H](Cc1ccc(O)cc1)C(=O)N[C@@H](CC1CCCCC1)C(=O)N[C@@H](Cc1c[nH]cn1)C(=O)N1CCC[C@H]1C(=O)N[C@H](Cc1cccc2ccccc12)C(=O)O)C(C)C [Compound 14, Sar-Arg-Val-Tyr-Cha-His-Pro-(D-1Nal)-OH] (HELM PEPTIDE1{[Sar].R.V.Y.[Cha].H.P.[O=C(O)[C@@H](Cc1cccc2ccccc12)N[*:1]]}$$$$V2.0) |  | 
100 | 4.6 | 6 | CNCC(=O)N[C@@H](CCCNC(=N)N)C(=O)N[C@H](C(=O)N[C@@H](Cc1ccc(O)cc1)C(=O)N[C@H](C(=O)N[C@@H](Cc1c[nH]cn1)C(=O)N1CCC[C@H]1C(=O)N[C@H](Cc1cccc2ccccc12)C(=O)O)C1CCCC1)C(C)C [Compound 15, Sar-Arg-Val-Tyr-Cpg-His-Pro-(D-1Nal)-OH] (HELM PEPTIDE1{[Sar].R.V.Y.[O=C([C@@H](N[*:1])C1CCCC1)[*:2]].H.P.[O=C(O)[C@@H](Cc1cccc2ccccc12)N[*:1]]}$$$$V2.0) |  | 
99 | 5 | 6 | CNCC(=O)N[C@@H](CCCNC(=N)N)C(=O)N[C@H](C(=O)N[C@@H](Cc1ccc(O)cc1)C(=O)N[C@@H](Cc1ccccc1)C(=O)N[C@@H](Cc1c[nH]cn1)C(=O)N1CCC[C@H]1C(=O)N[C@H](Cc1cccc2ccccc12)C(=O)O)C(C)C [Compound 16, Sar-Arg-Val-Tyr-Phe-His-Pro-(D-1Nal)-OH] (HELM PEPTIDE1{[Sar].R.V.Y.F.H.P.[O=C(O)[C@@H](Cc1cccc2ccccc12)N[*:1]]}$$$$V2.0) |  | 
99 | 10.1 | 3 | CNCC(=O)N[C@@H](CCCNC(=N)N)C(=O)N[C@H](C(=O)N[C@@H](Cc1ccc(O)cc1)C(=O)N[C@H](C(=O)N[C@@H](Cc1c[nH]cn1)C(=O)N1CCC[C@H]1C(=O)N[C@H](Cc1ccccc1Cl)C(=O)O)C1CCCC1)C(C)C [Compound 18, Sar-Arg-Val-Tyr-Cpg-His-Pro-(D-Phe(2-Cl))—OH] (HELM PEPTIDE1{[Sar].R.V.Y.[O=C([C@@H](N[*:1])C1CCCC1)[*:2]].H.P.[O=C(O)[C@@H](Cc1ccccc1Cl)N[*:1]]}$$$$V2.0) |  | 
99 | 14.1 | 8 | CNCC(=O)N[C@@H](CCCNC(=N)N)C(=O)N[C@H](C(=O)N[C@@H](Cc1ccc(O)cc1)C(=O)N[C@H](C(=O)N[C@@H](Cc1c[nH]cn1)C(=O)N1CCC[C@H]1C(=O)N[C@H](Cc1ccccc1Cl)C(=O)O)C1CCCCC1)C(C)C [Compound 19, Sar-Arg-Val-Tyr-Chg-His-Pro-(D-Phe(2-Cl))—OH] (HELM PEPTIDE1{[Sar].R.V.Y.[O=C([C@@H](N[*:1])C1CCCCC1)[*:2]].H.P.[O=C(O)[C@@H](Cc1ccccc1Cl)N[*:1]]}$$$$V2.0) |  | 
99 | 10.6 | 2 | CNCC(=O)N[C@@H](CCCNC(=N)N)C(=O)N[C@H](C(=O)N[C@@H](Cc1ccc(O)cc1)C(=O)N[C@H](C(=O)N[C@@H](Cc1c[nH]cn1)C(=O)N1CCC[C@H]1C(=O)N[C@H](Cc1ccccc1Cl)C(=O)O)[C@@H](C)OC)C(C)C [Compound 21, Sar-Arg-Val-Tyr-Thr(Me)-His-Pro-(D-Phe(2-Cl))—OH] |  | 
99 | 5 | 3 | CNCC(=O)N[C@@H](CCCNC(=N)N)C(=O)N[C@H](C(=O)N[C@@H](Cc1ccc(O)cc1)C(=O)N[C@@H](Cc1ccsc1)C(=O)N[C@@H](Cc1c[nH]cn1)C(=O)N1CCC[C@H]1C(=O)N[C@H](Cc1ccccc1Cl)C(=O)O)C(C)C [Compound 22, Sar-Arg-Val-Tyr-(3-Thi)-His-Pro-(D-Phe(2-Cl))—OH] (HELM PEPTIDE1{[Sar].R.V.Y.[O=C([C@H](Cc1ccsc1)N[*:1])[*:2]].H.P.[O=C(O)[C@@H](Cc1ccccc1Cl)N[*:1]]}$$$$V2.0) |  | 
98 | 5.2 | 4 | CNCC(=O)N[C@@H](CCCNC(=N)N)C(=O)N[C@H](C(=O)N[C@@H](Cc1ccc(O)cc1)C(=O)N[C@@H](Cc1cccs1)C(=O)N[C@@H](Cc1c[nH]cn1)C(=O)N1CCC[C@H]1C(=O)N[C@H](Cc1ccccc1Cl)C(=O)O)C(C)C [Compound 23, Sar-Arg-Val-Tyr-(2-Thi)-His-Pro-(D-Phe(2-Cl))—OH] (HELM PEPTIDE1{[Sar].R.V.Y.[O=C([C@H](Cc1cccs1)N[*:1])[*:2]].H.P.[O=C(O)[C@@H](Cc1ccccc1Cl)N[*:1]]}$$$$V2.0) |  | 
99 | 7 | 4 | CNCC(=O)N[C@@H](CCCNC(=N)N)C(=O)N[C@H](C(=O)N[C@@H](Cc1ccc(O)cc1)C(=O)N[C@@H](Cc1cscn1)C(=O)N[C@@H](Cc1c[nH]cn1)C(=O)N1CCC[C@H]1C(=O)N[C@H](Cc1ccccc1Cl)C(=O)O)C(C)C [Compound 24, Sar-Arg-Val-Tyr-(Ala(4-Thz))-His-Pro-(D-Phe(2-Cl))—OH] (HELM PEPTIDE1{[Sar].R.V.Y.[O=C([C@H](Cc1cscn1)N[*:1])[*:2]].H.P.[O=C(O)[C@@H](Cc1ccccc1Cl)N[*:1]]}$$$$V2.0) |  | 
100 | 11.6 | 2 | CC[C@H](C)[C@H](NC(=O)[C@H](Cc1ccc(O)cc1)NC(=O)[C@@H](NC(=O)[C@H](CCCNC(=N)N)NC(=O)CNC)C(C)C)C(=O)N[C@@H](Cc1c[nH]cn1)C(=O)N1CCC[C@H]1C(=O)N[C@H](Cc1ccccc1Cl)C(=O)O [Compound 25, Sar-Arg-Val-Tyr-Ile-His-Pro-(D-Phe(2-Cl))—OH] |  | 
99 | 32.9 | 12 | CNCC(=O)N[C@@H](CCCNC(=N)N)C(=O)N[C@H](C(=O)N[C@@H](Cc1ccc(O)cc1)C(=O)N[C@H](C(=O)N[C@@H](Cc1c[nH]cn1)C(=O)N1CCC[C@H]1C(=O)N[C@H](Cc1ccccc1C(F)(F)F)C(=O)O)C1CCCCC1)C(C)C [Compound 26, Sar-Arg-Val-Tyr-Chg-His-Pro-(D-Phe(2-CF3))—OH] (HELM PEPTIDE1{[Sar].R.V.Y.[O=C([C@@H](N[*:1])C1CCCCC1)[*:2]].H.P.[O=C(O)[C@@H](Cc1ccccc1C(F)(F)F)N[*:1]]}$$$$V2.0) |  | 

SMILES | Emax [1] [%] | IC50 [1, 3] [nM] | Emax [2, 4] [%] | IC50 [1] [nM] | Emax [2] [%]
CNCC(=O)N[C@@H](CCCNC(=N)N)C(=O)N[C@H](C(=O)N[C@@H](Cc1ccc(O)cc1)C(=O)N[C@H](C(=O)N[C@@H](Cc1c[nH]cn1)C(=O)N1CCC[C@H]1C(=O)N[C@H](Cc1cccc2ccccc12)C(=O)O)[C@@H](C)OC)C(C)C [Compound 17, Sar-Arg-Val-Tyr-Thr(Me)-His-Pro-(D-1Nal)-OH] | 100 |  |  | 6 | 4
CNCC(=O)N[C@@H](CCCNC(=N)N)C(=O)N[C@H](C(=O)N[C@@H](Cc1ccc(O)cc1)C(=O)N[C@@H](Cc1ccc(N)cc1)C(=O)N[C@@H](Cc1c[nH]cn1)C(=O)N1CCC[C@H]1C(=O)N[C@H](Cc1ccccc1Cl)C(=O)O)C(C)C [Compound 20, Sar-Arg-Val-Tyr-Aph-His-Pro-(D-Phe(2-Cl))—OH] (HELM PEPTIDE1{[Sar].R.V.Y.[Nc1ccc(C[C@H](N[*:1])C(=O)[*:2])cc1].H.P.[O=C(O)[C@@H](Cc1ccccc1Cl)N[*:1]]}$$$$V2.0) | 99 | 5.2 | 5 |  | 
